From patent US8765754B2, “Pyrrolotriazine compounds” (Locus Pharmaceuticals, Inc., priority 2009, dated 2014) come the findings set out here.

SMILES strings stand for the structures.

For orientation: IC50 means the point on the concentration scale where inhibition reaches its midpoint. For orientation: bioavailability means the share of a dose that reaches the circulation, judged against a reference dose that is usually intravenous. As a reminder, the AUC is the area under the concentration-time curve, a measure of exposure. Low readings indicate less exposure, high ones more exposure. The Cmax is the maximum level reached in the sampled fluid or tissue.

For series [1], the target named is T1, Btk (Homo sapiens, UniProt Q06187).
T1 construct: purchased Invitrogen
The experiment in a line: Btk in vitro radioassay (33P-ATP, Poly(Glu,Tyr)). Type of series: biochemical. The settings on record: Btk inhibition; reported after Biological Example 2; read-out: IC50 over Btk. The procedure:
The diluted solution (1 μl) of the compound of the present invention in DMSO was added to 96-well assay plates. Additionally, Btk kinase solution (39 μL) composed of Btk (1.3 nM, Invitrogen), Tris (12.5 mM; pH7.5), Triton X-100 (0.01%), glycerol (5%), MgCl2 (10 mM), EGTA (1 mM), glycerol 2-phosphate (5 mM), DTT (2 mM) and sodium orthovanadate (0.5 mM) was added to 96-well assay plate. The solution was pre-incubated for 20 minutes at 30° C. Then ATP/peptide solution (10 μL) composed of Poly (Glu, Tyr) (0.20 mg/mL, Sigma) and ^33P-ATP (47 μM, PerkinElmer) was added. After incubating at 30° C. for 12 minutes, the reaction was stopped by adding 10 μL of 0.6M phosphoric acid to each well. The each reaction from the 96-well assay plate was transferred to 96-well filter plate. The reaction mixture was analyzed on the radioactive survey equipment (TopCount NXT HTS; PerkinElmer) to read count efficiency.
The inhibition rate (%) of the compound of the present invention was calculated with the following formula: Inhibition rate(%)={1−(counts−B100)/(B0−B100)}×100 B0: average counts for 0% inhibition control (i.e., no compound) B100: average counts for 100% inhibition control (i.e., no enzyme)
The value of 50% inhibition rate (IC50) for the compounds of the present invention was determined from inhibition curve based on inhibition rate at each concentration of the compound of the present invention.

The target in series [2] is Fyn (Homo sapiens, UniProt P06241). The series is described as follows: Z'-lyte kinase assay (FRET), inhibitory activity to other kinases: Fyn. Type of series: biochemical. The following applies: selectivity ratio, Biological Example 1 and 2. On the procedure:
(§1) Btk tyrosine phosphorylation reaction was carried out using Z′-lyte kinase assay kit—Tyr 1 peptide (Invitrogen) consisting of the following reagent (Tyr 1 peptide, Thy 1 phospho-peptide, 5× kinase buffer, ATP, development regent B, development buffer, and stop reagent) and Btk. Btk activity was determined using fluorescence resonance energy transfer (FRET) method.
(§2) The diluted solution (5 μl) of the compound of the present invention in dimethyl sulfoxide (DMSO; Sigma) was added to 96-well assay plates. Additionally, the peptide/kinase solution (10 μl) composed of DL-Dithiothreitol (DTT; 2 mM), Tyr 1 peptide (2 μM), kinase buffer and Btk (5 nM, Invitrogen) was added to the assay plates and the reaction solution was pre-incubated for 20 minutes at 25° C. Then, the ATP solution (5 μl) composed of adenosine triphosphate (ATP; 36 μM) and kinase buffer was added and the reaction solution was incubated for 1 hour at 25° C. After the incubation, the development solution B (10 μl) composed of development reagent B and development buffer was added and the reaction solution was incubated for 1 hour at 25° C. The stop solution (10 μl) was added to each well to arrest the enzyme reaction. The fluorescence emission of each well was measured on a fluorescence plate reader at a wavelength of 445 nm and 520 nm. The phospholyration ratio was determined by the emission rate of the fluorescence at 445 nm to 520 nm according to manufacturer's instruction.
(§3) The inhibition rate (%) of the compounds of the present invention was calculated with the following formula: Inhibition rate(%)=1−{(AX−AB)/(AC−AB)}×100 AX: phospholyration ratio at addition of the compound of the present invention AB: phospholyration ratio at blank AC: phospholyration ratio at only addition of DMSO
(§4) The value of 50% inhibition rate (IC50) for the compound of the present invention was determined from inhibition curve based on inhibition rate at each concentration of the compound of the present invention.
(§5) Research for inhibitory activity to other kinases (such as Lck, Fyn, LynA) was performed in similar procedure above described.

The target in series [3] is LynA (Homo sapiens, UniProt P07948). The experiment in a line: Z'-lyte kinase assay (FRET), inhibitory activity to other kinases: LynA. Type of series: biochemical. The following applies: selectivity ratio, Biological Example 1 and 2. On the procedure:
as §1, §2, §3, §4, §5

Series [4] has as its target Lck (Homo sapiens, UniProt P06239). The series is described as follows: Z'-lyte kinase assay (FRET), inhibitory activity to other kinases: Lck. Type of series: biochemical. The settings on record: selectivity ratio, Biological Example 1 and 2. On the procedure: as §1
The diluted solution (5 μl) of the compound of the present invention in dimethyl sulfoxide (DMSO; Sigma) was added to 96-well assay plates. Additionally, the peptide/kinase solution (10 μl) composed of DL-Dithiothreitol (DTT; 2 mM), Tyr 1 peptide (2 μM), kinase buffer and Btk (5 nM, Invitrogen) was added to the assay plates and the reaction solution was pre-incubated for 20 minutes at 25° C. […] The fluorescence emission of each well was measured on a fluorescence plate reader at a wavelength of 445 nm and 520 nm. The phospholyration ratio was determined by the emission rate of the fluorescence at 445 nm to 520 nm according to manufacturer's instruction.
The inhibition rate (%) of the compounds of the present invention was calculated with the following formula: Inhibition rate(%)=1−{(AX−AB)/(AC−AB)}×100 AX: phospholyration ratio at addition of the compound of the present invention AB: phospholyration ratio at blank AC: phospholyration ratio at only addition of DMSO […]

Series [5] in a line: Pharmacokinetic profile in rats. It counts as in vivo. The settings on record: rat, plasma, fasted male Sprague-Dawley rats. On the procedure: Using fasted male Sprague-Dawley rats (250-400 gram; Hilltop Labs), the plasma concentration of the compound of the present invention after intravenous administration at a dose of 1 mg/kg and the plasma concentration after oral gavage administration at a dose of 2 mg/kg were measured. The blood samples (˜0.25 mL) was collected from a rat jugular vein under an unanesthetized condition 1, 5, 15, and 30 minutes, and 1, 2, 4, 8, 12 and 24 hours after intravenous administration, and 5, 15 and 30 minutes, and 1, 1.5, 2, 4, 8, 12 and 24 hours after oral administration. Then the blood samples placed into chilled tubes containing sodium heparin and kept on ice until centrifugation. The samples were centrifuged at a temperature of 4° C. at 13,000 rpm for 5 minutes and the supernatant was collected as plasma. The concentration of the compound in plasma was measured with LC/MS/MS (Acquity HPLC coupled with a quattromicro mass spectrometer, Waters Corp.). From the obtained plasma concentration, an area under the curve (AUC, ng·h/ml), a maximum plasma concentration.(Cmax, μg/mL) and a clearance (CL, mL/hr/kg) were calculated. In addition, Bioavailability (B.A.) of the compound of the present invention was calculated from AUC in oral administration and AUC in intravenous administration.

The subject of series [6] is mouse splenocytes. The series is described as follows: B cell activation assay using mouse splenocytes (anti-IgM stimulated CD69 in CD19 positive cells, FACS). It counts as cell-based. The following applies: Splenocyte; anti-mouse IgM stimulation 6 hours; CD69 MFI in CD19 positive cells. The procedure: Splenocytes collected from C57B1/6 or Balb/c mice were suspended in RPMI 1640 (Invitrogen), supplemented with 10% fetal bovine serum (FBS). The diluted solution (1 μl) of the compound of the present invention and the suspension of the mouse splenocytes (49 μl) were added to 96-well plate and incubated at 37° C. for 60 min. Cells were stimulated with 10 μl of anti-mouse IgM (Jackson Immunoresearch). Samples were stimulated at 37° C. for 6 hours, 5% CO2 and treated with 10 μl/well Fc block (BD Biosciences) for 15 min on ice in the dark. The diluted solution (10 μl) of antibody (1:2:2 mix of each, Allphycocyanin (APC)-labeled anti-mouse CD3e, Phycoerythrin (PE)-labeled anti-mouse CD19 and Fluorescein Isothiocyanate (FITC) labeled anti-mouse CD69) was added to 96-well collection plate. Samples were transferred to the 96-well collection plate and incubated for 30 min on ice in the dark. Samples were treated with Lyse/Fix solution (1.6 ml/well, BD biosciences) at 37° C. in collection plates and were incubated for at 37° C. for 15 min. Cells were collected by centrifugation at 2000 rpm for 10 min repeatedly, resuspended in stain buffer (BD Biosciences) and analyzed by FACS to determine mean fluorescence intensity (MFI) of CD69 in the CD19 positive cell population. […]

The mark [7] stands for this setting: oral 2 mg/kg / i.v. 1 mg/kg study, route of the value not given.

Fyn, sequence (P06241 whole entry): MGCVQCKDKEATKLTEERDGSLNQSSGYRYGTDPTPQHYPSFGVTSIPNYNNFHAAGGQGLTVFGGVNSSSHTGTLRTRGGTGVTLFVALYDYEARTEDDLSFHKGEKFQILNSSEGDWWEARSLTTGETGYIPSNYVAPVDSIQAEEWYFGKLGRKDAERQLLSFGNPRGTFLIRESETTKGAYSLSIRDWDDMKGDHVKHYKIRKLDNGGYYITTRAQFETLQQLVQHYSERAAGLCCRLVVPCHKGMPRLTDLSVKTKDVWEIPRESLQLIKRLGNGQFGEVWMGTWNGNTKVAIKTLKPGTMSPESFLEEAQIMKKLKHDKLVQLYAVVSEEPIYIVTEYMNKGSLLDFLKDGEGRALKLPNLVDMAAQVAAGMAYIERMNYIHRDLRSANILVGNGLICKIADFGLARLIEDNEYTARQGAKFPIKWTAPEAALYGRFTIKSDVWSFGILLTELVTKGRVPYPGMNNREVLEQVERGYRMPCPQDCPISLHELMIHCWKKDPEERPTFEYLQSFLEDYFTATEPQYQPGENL
LynA, sequence (P07948 whole entry): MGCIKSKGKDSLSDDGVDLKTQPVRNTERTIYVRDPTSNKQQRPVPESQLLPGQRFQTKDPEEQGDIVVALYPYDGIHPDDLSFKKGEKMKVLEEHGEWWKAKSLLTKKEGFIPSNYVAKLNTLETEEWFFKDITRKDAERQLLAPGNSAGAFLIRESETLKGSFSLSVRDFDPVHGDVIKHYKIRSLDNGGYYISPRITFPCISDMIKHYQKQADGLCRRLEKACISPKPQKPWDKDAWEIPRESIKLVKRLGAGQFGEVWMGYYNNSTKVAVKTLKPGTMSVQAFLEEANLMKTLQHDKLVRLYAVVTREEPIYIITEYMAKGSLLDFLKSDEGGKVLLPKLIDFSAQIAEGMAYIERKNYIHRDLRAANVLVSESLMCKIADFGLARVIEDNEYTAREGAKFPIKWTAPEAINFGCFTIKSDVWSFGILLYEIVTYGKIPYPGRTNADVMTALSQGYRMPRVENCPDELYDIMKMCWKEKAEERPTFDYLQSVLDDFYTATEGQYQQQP
T1 sequence (Q06187 whole entry): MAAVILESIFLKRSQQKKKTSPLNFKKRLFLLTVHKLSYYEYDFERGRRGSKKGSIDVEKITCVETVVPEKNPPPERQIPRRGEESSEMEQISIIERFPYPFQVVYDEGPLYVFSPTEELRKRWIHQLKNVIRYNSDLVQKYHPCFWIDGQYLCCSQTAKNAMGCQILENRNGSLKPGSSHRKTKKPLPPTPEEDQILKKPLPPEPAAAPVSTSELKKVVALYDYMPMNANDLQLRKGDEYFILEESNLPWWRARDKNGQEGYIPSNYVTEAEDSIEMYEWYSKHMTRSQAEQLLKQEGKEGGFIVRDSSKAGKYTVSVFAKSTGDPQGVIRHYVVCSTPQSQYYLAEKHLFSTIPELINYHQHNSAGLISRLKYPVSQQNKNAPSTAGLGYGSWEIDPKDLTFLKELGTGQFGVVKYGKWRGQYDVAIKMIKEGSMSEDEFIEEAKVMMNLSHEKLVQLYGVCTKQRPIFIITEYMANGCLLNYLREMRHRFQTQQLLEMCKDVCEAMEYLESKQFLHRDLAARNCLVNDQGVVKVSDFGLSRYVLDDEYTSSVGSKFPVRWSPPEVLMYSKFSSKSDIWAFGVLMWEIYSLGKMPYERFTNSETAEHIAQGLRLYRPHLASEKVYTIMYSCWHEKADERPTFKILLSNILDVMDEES
Lck, sequence (P06239 whole entry): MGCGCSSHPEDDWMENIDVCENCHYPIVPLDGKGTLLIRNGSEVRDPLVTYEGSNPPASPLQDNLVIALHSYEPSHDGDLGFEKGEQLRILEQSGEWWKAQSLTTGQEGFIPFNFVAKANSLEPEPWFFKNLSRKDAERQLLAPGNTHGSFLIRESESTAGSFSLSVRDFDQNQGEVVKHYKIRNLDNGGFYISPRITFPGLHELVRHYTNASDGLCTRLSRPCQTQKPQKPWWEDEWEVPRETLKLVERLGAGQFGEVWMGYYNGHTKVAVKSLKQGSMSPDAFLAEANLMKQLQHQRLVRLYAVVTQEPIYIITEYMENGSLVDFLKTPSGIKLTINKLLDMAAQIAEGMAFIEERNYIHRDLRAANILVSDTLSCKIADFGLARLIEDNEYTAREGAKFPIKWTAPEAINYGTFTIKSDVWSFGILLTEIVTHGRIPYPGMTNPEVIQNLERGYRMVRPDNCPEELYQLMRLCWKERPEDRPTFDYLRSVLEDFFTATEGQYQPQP

`CCN(CC)CC(=O)N1CCC(c2c(CCCN3CCCC3)c(-c3ccc(Oc4ccc(Cl)c(Cl)c4)c(OC)c3)c3c(N)ncnn23)CC1` [Example 21, 1-(4-(4-amino-5-(4-(3,4-dichlorophenoxy)-3-methoxyphenyl)-6-(3-(pyrrolidin-1-yl)propyl)pyrrolo[2,1-f][1,2,4]triazin-7-yl)piperidin-1-yl)-2-(diethylamino)ethanone]: the half-maximal inhibitory concentration (IC50) in series [1] is 16 nM.
The same measure, in the same setting: the result for `COc1cccc(-c2c(CCCN(C)C)c(-c3ccc(Oc4ccccc4)cc3)c3c(N)ncnn23)c1` [Example 16(1), 6-(3-(dimethylamino)propyl)-7-(3-methoxyphenyl)-5-(4-phenoxyphenyl)pyrrolo[2,1-f][1,2,4]triazin-4-amine] reads 5.8 nM.
Take `C=CC(=O)N1CCCC(c2c(Cl)c(-c3ccc(Oc4ccc(Cl)c(Cl)c4)c(OC)c3)c3c(N)ncnn23)C1` (stereo not drawn) [Example 32(1), 1-(3-(4-amino-6-chloro-5-(4-(3,4-dichlorophenoxy)-3-methoxyphenyl)pyrrolo[2,1-f][1,2,4]triazin-7-yl)piperidin-1-yl)prop-2-en-1-one]: the “Fyn[IC50]/Btk[IC50]” value in series [2] is given as above 10000. In series [3], the “LynA[IC50]/Btk[IC50]” value is listed as 10000. Further, in series [1], the IC50 stood at 2 nM.
With `COc1cccc(-c2c(CCCN3CCCC3)c(-c3ccc(Oc4ccccc4)cc3)c3c(N)ncnn23)c1` [Example 16(2), 7-(3-methoxyphenyl)-5-(4-phenoxyphenyl)-6-(3-(pyrrolidin-1-yl)propyl)pyrrolo[2,1-f][1,2,4]triazin-4-amine], the IC50 in series [1] is 65 nM.
For `CCN(CC)CC(=O)N1CCC(c2c(CCCN3CCCC3)c(-c3ccc(Oc4cccc(Cl)c4)c(OC)c3)c3c(N)ncnn23)CC1` [Example 21(1), 1-(4-(4-amino-5-(4-(3-chlorophenoxy)-3-methoxyphenyl)-6-(3-(pyrrolidin-1-yl)propyl)pyrrolo[2,1-f][1,2,4]triazin-7-yl)piperidin-1-yl)-2-(diethylamino)ethanone], in series [1], the IC50 worked out at 22 nM.
As for `COc1cccc(-c2c(CCCN3CCCC3)c(-c3ccc(Oc4ccc(Cl)c(Cl)c4)c(OC)c3)c3c(N)ncnn23)c1` [Example 16(3), 5-(4-(3,4-dichlorophenoxy)-3-methoxyphenyl)-7-(3-methoxyphenyl)-6-(3-(pyrrolidin-1-yl)propyl)pyrrolo[2,1-f][1,2,4]triazin-4-amine], the “Lck[IC50]/Btk[IC50]” value in series [4] came out at 40. For the same compound, the “Fyn[IC50]/Btk[IC50]” value in series [2] was found to be 917. Besides, the “LynA[IC50]/Btk[IC50]” value in series [3] is recorded as 78. Further, in series [1], the IC50 came out at 12 nM.
For `C=CC(=O)N1CCCC(c2c(Cl)c(-c3ccc(Oc4cccc(Cl)c4)c(OC)c3)c3c(N)ncnn23)C1` (stereo not drawn) [Example 32, 1-(3-(4-amino-6-chloro-5-(4-(3-chlorophenoxy)-3-methoxyphenyl)pyrrolo[2,1-f][1,2,4]triazin-7-yl)piperidin-1-yl)prop-2-en-1-one], the “Lck[IC50]/Btk[IC50]” value in series [4] is listed as 161. Moreover, the “Fyn[IC50]/Btk[IC50]” value in series [2] is reported as 7222. In series [5] (intravenous, oral 2 mg/kg / i.v. 1 mg/kg study), this compound gave a clearance of 17.8 mL/day/kg. The bioavailability in series [5] (from AUC oral 2 mg/kg and AUC i.v. 1 mg/kg, read-out: B.A. (Bioavailability)) is 24%. Also, in series [5] (setting [7]), the AUC is 652 ng·h/mL and the concentration peaked (Cmax) at 227 ng/mL. Moreover, in series [3], the “LynA[IC50]/Btk[IC50]” value is 1389. This compound displayed an IC50 in series [6] of 130 nM. Besides, the half-maximal inhibitory concentration (IC50) in series [1] was 2 nM.
On to `COc1cc(-c2c(C3CCNCC3)c(C3CCCC3)n3ncnc(N)c23)ccc1Oc1ccc(Cl)c(Cl)c1` [Example 25(1), 7-cyclopentyl-5-(4-(3,4-dichlorophenoxy)-3-methoxyphenyl)-6-(piperidin-4-yl)pyrrolo[2,1-f][1,2,4]triazin-4-amine], for which, in series [1], the IC50 came out at 62 nM.
